Values quoted from earlier work in US20210069064A1, “A MANUFACTURING METHOD OF AN HERBAL MEDICINAL TABLET FORMULATION FOR TREATING OBESITY WHICH CAN BE […] ON SASANG CONS[…]” (NUBEBE CO., LTD., priority 2017, published 2021).

Conditions: taken for 20 weeks or more

CN[C@@H](C)[C@H](O)c1ccccc1 [ephedrine]
weight and body fat change compared to the control group: weight and body fat loss
